# From patent US20260078341A1, “TREATMENT OF CANCER USING CHIMERIC ANTIGEN RECEPTOR” (Novartis AG, priority 2014, published 2026)
# Where two headings read alike, the source gives them in different places.
# Settings: for Treatment-related AE: Blood cholesterol increased / Treatment-related AE: Conjunctivitis / Treatment-related AE: Diarrhea / Treatment-related AE: Dry mouth / Treatment-related AE: Dyspepsia / Treatment-related AE: Erythema / Treatment-related AE: Fatigue / Treatment-related AE: Headache / Treatment-related AE: Insomnia / Treatment-related AE: Limb discomfort / Treatment-related AE: Low density lipoprotein increased / Treatment-related AE: Mouth ulceration / Treatment-related AE: Mucosal inflammation / Treatment-related AE: Neutropenia / Treatment-related AE: Oral pain / Treatment-related AE: Paresthesia oral / Treatment-related AE: Pruritus / Treatment-related AE: Stomatitis / Treatment-related AE: Thrombocytopenia / Treatment-related AE: Tongue ulceration / Treatment-related AE: Urinary tract infection / Treatment-related AEs: Patients with AE(s) / Treatment-related AEs: Total AE(s): N = 53
compound,measurement,setting,value
"CO[C@H]1C[C@@H]2CC[C@@H](C)[C@@](O)(O2)C(=O)C(=O)N2CCCC[C@H]2C(=O)O[C@H]([C@H](C)C[C@@H]2CC[C@@H](OCCO)[C@H](OC)C2)CC(=O)[C@H](C)/C=C(\C)[C@@H](O)[C@@H](OC)C(=O)[C@H](C)C[C@H](C)/C=C/C=C/C=C/1C [RAD001, (1R,9S,12S,15R,16E,18R,19R,21R,23S,24E,26E,28E,30S,32S,35R)-1,18-dihydroxy-12-{(1R)-2-[(1S,3R,4R)-4-(2-hydroxyethoxy)-3-methoxycyclohexyl]-1-methylethyl}-19,30-dimethoxy-15,17,21,23,29,35-hexamethyl-11,36-dioxa-4-azatricyclo[30.3.1.0^4,9]hexatriaconta-16,24,26,28-tetraene-2,3,10,14,20-pentaone]",Treatment-related AE: Blood cholesterol increased,RAD001 0.5 mg daily,2 (3.8%) n (%)
same,Treatment-related AE: Conjunctivitis,RAD001 0.5 mg daily,0 n (%)
same,Treatment-related AE: Diarrhea,RAD001 0.5 mg daily,1 (1.9%) n (%)
same,Treatment-related AE: Dry mouth,RAD001 0.5 mg daily,0 n (%)
same,Treatment-related AE: Dyspepsia,RAD001 0.5 mg daily,0 n (%)
same,Treatment-related AE: Erythema,RAD001 0.5 mg daily,0 n (%)
same,Treatment-related AE: Fatigue,RAD001 0.5 mg daily,0 n (%)
same,Treatment-related AE: Headache,RAD001 0.5 mg daily,0 n (%)
same,Treatment-related AE: Insomnia,RAD001 0.5 mg daily,1 (1.9%) n (%)
same,Treatment-related AE: Limb discomfort,RAD001 0.5 mg daily,0 n (%)
same,Treatment-related AE: Low density lipoprotein increased,RAD001 0.5 mg daily,2 (3.8%) n (%)
same,Treatment-related AE: Mouth ulceration,RAD001 0.5 mg daily,6 (11.3%) n (%)
same,Treatment-related AE: Mucosal inflammation,RAD001 0.5 mg daily,0 n (%)
same,Treatment-related AE: Neutropenia,RAD001 0.5 mg daily,0 n (%)
same,Treatment-related AE: Oral pain,RAD001 0.5 mg daily,0 n (%)
same,Treatment-related AE: Paresthesia oral,RAD001 0.5 mg daily,2 (3.8%) n (%)
same,Treatment-related AE: Pruritus,RAD001 0.5 mg daily,0 n (%)
same,Treatment-related AE: Stomatitis,RAD001 0.5 mg daily,0 n (%)
same,Treatment-related AE: Thrombocytopenia,RAD001 0.5 mg daily,0 n (%)
same,Treatment-related AE: Tongue ulceration,RAD001 0.5 mg daily,3 (5.7%) n (%)
same,Treatment-related AE: Urinary tract infection,RAD001 0.5 mg daily,0 n (%)
same,Treatment-related AEs: Patients with AE(s),RAD001 0.5 mg daily,22 (41.5%) n (%)
same,Treatment-related AEs: Total AE(s),RAD001 0.5 mg daily,35 n (%)
same,Treatment-related AE: Blood cholesterol increased,RAD001 5 mg weekly,2 (3.8%) n (%)
same,Treatment-related AE: Conjunctivitis,RAD001 5 mg weekly,2 (3.8%) n (%)
same,Treatment-related AE: Diarrhea,RAD001 5 mg weekly,4 (7.5%) n (%)
same,Treatment-related AE: Dry mouth,RAD001 5 mg weekly,0 n (%)
same,Treatment-related AE: Dyspepsia,RAD001 5 mg weekly,3 (5.7%) n (%)
same,Treatment-related AE: Erythema,RAD001 5 mg weekly,2 (3.8%) n (%)
same,Treatment-related AE: Fatigue,RAD001 5 mg weekly,2 (3.8%) n (%)
same,Treatment-related AE: Headache,RAD001 5 mg weekly,2 (3.8%) n (%)
same,Treatment-related AE: Insomnia,RAD001 5 mg weekly,2 (3.8%) n (%)
same,Treatment-related AE: Limb discomfort,RAD001 5 mg weekly,2 (3.8%) n (%)
same,Treatment-related AE: Low density lipoprotein increased,RAD001 5 mg weekly,1 (1.9%) n (%)
same,Treatment-related AE: Mouth ulceration,RAD001 5 mg weekly,2 (3.8%) n (%)
same,Treatment-related AE: Mucosal inflammation,RAD001 5 mg weekly,0 n (%)
same,Treatment-related AE: Neutropenia,RAD001 5 mg weekly,0 n (%)
same,Treatment-related AE: Oral pain,RAD001 5 mg weekly,2 (3.8%) n (%)
same,Treatment-related AE: Paresthesia oral,RAD001 5 mg weekly,0 n (%)
same,Treatment-related AE: Pruritus,RAD001 5 mg weekly,2 (3.8%) n (%)
same,Treatment-related AE: Stomatitis,RAD001 5 mg weekly,0 n (%)
same,Treatment-related AE: Thrombocytopenia,RAD001 5 mg weekly,0 n (%)
same,Treatment-related AE: Tongue ulceration,RAD001 5 mg weekly,1 (1.9%) n (%)
same,Treatment-related AE: Urinary tract infection,RAD001 5 mg weekly,0 n (%)
same,Treatment-related AEs: Patients with AE(s),RAD001 5 mg weekly,20 (37.7%) n (%)
same,Treatment-related AEs: Total AE(s),RAD001 5 mg weekly,46 n (%)
same,Treatment-related AE: Blood cholesterol increased,RAD001 20 mg weekly,2 (3.8%) n (%)
same,Treatment-related AE: Conjunctivitis,RAD001 20 mg weekly,0 n (%)
same,Treatment-related AE: Diarrhea,RAD001 20 mg weekly,1 (1.9%) n (%)
same,Treatment-related AE: Dry mouth,RAD001 20 mg weekly,2 (3.8%) n (%)
same,Treatment-related AE: Dyspepsia,RAD001 20 mg weekly,2 (3.8%) n (%)
same,Treatment-related AE: Erythema,RAD001 20 mg weekly,0 n (%)
same,Treatment-related AE: Fatigue,RAD001 20 mg weekly,4 (7.5%) n (%)
same,Treatment-related AE: Headache,RAD001 20 mg weekly,9 (17.0%) n (%)
same,Treatment-related AE: Insomnia,RAD001 20 mg weekly,1 (1.9%) n (%)
same,Treatment-related AE: Limb discomfort,RAD001 20 mg weekly,0 n (%)
same,Treatment-related AE: Low density lipoprotein increased,RAD001 20 mg weekly,2 (3.8%) n (%)
same,Treatment-related AE: Mouth ulceration,RAD001 20 mg weekly,9 (17.0%) n (%)
same,Treatment-related AE: Mucosal inflammation,RAD001 20 mg weekly,2 (3.8%) n (%)
same,Treatment-related AE: Neutropenia,RAD001 20 mg weekly,3 (5.7%) n (%)
same,Treatment-related AE: Oral pain,RAD001 20 mg weekly,1 (1.9%) n (%)
same,Treatment-related AE: Paresthesia oral,RAD001 20 mg weekly,0 n (%)
same,Treatment-related AE: Pruritus,RAD001 20 mg weekly,1 (1.9%) n (%)
same,Treatment-related AE: Stomatitis,RAD001 20 mg weekly,2 (3.8%) n (%)
same,Treatment-related AE: Thrombocytopenia,RAD001 20 mg weekly,2 (3.8%) n (%)
same,Treatment-related AE: Tongue ulceration,RAD001 20 mg weekly,0 n (%)
same,Treatment-related AE: Urinary tract infection,RAD001 20 mg weekly,2 (3.8%) n (%)
same,Treatment-related AEs: Patients with AE(s),RAD001 20 mg weekly,27 (50.9%) n (%)
same,Treatment-related AEs: Total AE(s),RAD001 20 mg weekly,109 n (%)
same,tolerability,"elderly volunteers, 6 weeks, particularly 0.5 mg daily and 5 mg weekly",well tolerated
